Test results as given in US8829014B2, “Thiazole and thiophene analogues, and their use in treating autoimmune diseases and cancers” (Board of Supervisors of Louisiana State University and …, priority 2006, dated 2014).

Each compound was assayed on carageenan-induced edema (assay: Carrageenan-induced rat paw edema test (anti-inflammatory activity)). Conditions: Rattus norvegicus, po, 3 h, carrageenan-induced rat paw edema; defined in Example 397; read-out: % Protection.
Assay type: in vivo, Sprague-Dawley rats
Procedure: Sprague-Dawley rats, male and female, 150-250 g will be used in an edema test. Rats will be deprived of food but not water for 18 hours prior to the experiment. The test compounds will be administered with a blunt-tipped needle orally, 50 mg/kg, as a suspension in 0.1% sodium CMC (carboxymethylcellulose) vehicle. Alternatively, the test compounds will be injected intravenously, subcutaneously, or intraperitoneally. One hour later, 0.1 ml of a 1% carrageenan solution in saline will be injected in the sub-plantar region of the right hind paw of each rat. […] The reading will be repeated 3 hours later. The displacement readings give a measure of carageenan-induced edema. Any reduction in carageenan-induced edema with a test compound, as compared to saline control, is a measure of the anti-inflammatory activity of the test compound. The percentage protection at 50-mg/kg doses was calculated according to the following formula: % Protection=[(Control−Test)/Control]×100%.
Following treatment, the media from the VSMC and HUVEC incubations were removed, and the amount of lactate dehydrogenase (LDH) released into the medium was determined with a commercial kit and expressed as a % increase over vehicle-treated cells. HPT toxicity was determined by the ethidium homodimer (EthHD) uptake assay. […] The lead compounds were also tested in two pairs of cell lines from the skin or prostate, one tumorigenic and one non-tumorigenic, to test for differing toxicity or heightened sensitivity in the tumorigenic lines. The cells were treated for 48 h with vehicle (0.1% DMSO) or 10 μM of each drug candidate, and the viability of the cells was determined by the MTT assay, expressed as a % decrease in viability compared to vehicle-treated cells. The in vivo inflammation model measured the % inhibition of rat paw edema induced by carageenan injection.

Compound	inhibition in vivo at 50 mg/kg
COc1ccccc1-n1c(-c2sc(Nc3ccc(Cl)cc3)nc2-c2ccccc2)nc2ccccc2c1=O [Example 208, 2-[2-(4-Chloro-phenylamino)-4-phenyl-thiazol-5-yl]-3-(2-methoxyphenyl)-3H-quinazolin-4-one]	31%
COc1ccccc1-n1c(-c2sc(Nc3ccc(Cl)cc3)nc2C)nc2ccccc2c1=O [Example 203, 2-[2-(4-Chlorophenylamino)-4-methyl-thiazol-5-yl]-3-(2-methoxyphenyl)-3H-quinazoline-4-one]	27%

Same assay, conditions: Rattus norvegicus, po, 3 h, rat paw edema, 50 mg/kg, reading 3 hours after carrageenan; [(Control−Test)/Control]×100%; read-out: % Protection P

Compound	inhibition in vivo at 50 mg/kg
CCOC(=O)Nc1nc(-c2ccccc2)c(C(=O)c2sc(NC(=O)OCC)nc2-c2ccccc2)s1 [Example 131, Diethyl[carbonyl-bis(4-phenyl-1,3-thiazole-5,2-diyl)]biscarbamate]	69.8%
CC(=O)Nc1ccc(-c2cc(C(=O)c3ccc(S(C)(=O)=O)cc3)sc2N2CCOCC2)cc1 [Example 72, N-{4-[5-(4-Methansulfonyl-benzoyl)-2-morpholin-4-yl-thiophene-3-yl]-phenyl}-acetamide]	50%
COc1ccc(Nc2nc(NC(=O)Nc3ccc(F)cc3)c(-c3cc(C)c(OC)c(C)n3)s2)cc1 [Example 366, 1-(4-Fluoro-phenyl)-3-[5-(5-methoxy-4,6-dimethyl-pyridin-2-yl)-2-(4-methoxy-phenylamino)-thiazol-4-yl]-urea]	19.1%
COc1ccc(Nc2nc(N)c(C(=O)c3ccc(OC)cc3)s2)cc1 [Example 343, ([4-Amino-2-(4-methoxy-phenylamino)-thiazol-5-yl]-(4-methoxy-phenyl)-methanone)]	54%
CS(=O)(=O)c1ccc(-c2cc(C(=O)c3cccnc3)sc2N2CCOCC2)cc1 [Example 62, [4-(4-Methanesulfonyl-phenyl)-5-morpholin-4-yl-thiophene-2-yl]-pyridin-3-yl-methanone]	0%
O=C(c1ccc(Cl)cc1)c1cc(-c2ccccc2)c(N2CCOCC2)s1 [Example 45, (4-Chloro-phenyl)-(5-morpholin-4-yl-4-phenyl-thiophene-2-yl)-methanone]	53.5%
Nc1nc(Nc2ccc(Cl)cc2)sc1C(=O)c1ccncc1 [Example 339, [4-Amino-2-(4-chloro-phenylamino)-thiazol-5-yl]-pyridin-4-yl-methanone]	12%
Cc1ccc(C(=O)c2cc(-c3ccc(Cl)cc3)c(N3CCOCC3)s2)cc1 [Example 79, [4-(4-Chloro-phenyl)-5-morpholin-4-yl-thiophen-2-yl]-p-tolyl-methanone]	-31%
CSc1ccc(C(=O)c2cc(-c3ccc(S(C)(=O)=O)cc3)c(N3CCOCC3)s2)cc1 [Example 59, [4-(4-Methanesulfonyl-phenyl)-5-morpholin-4-yl-thiophene-2-yl]-(4-methylsulfanyl-phenyl)-methanone]	45.8%
O=C(c1cc(-c2ccccc2)c(N2CCOCC2)s1)c1ccc(Cl)cc1Cl [Example 46, (2,4-Dichloro-phenyl)-(5-morpholin-4-yl-4-phenyl-thiophene-2-yl)-methanone]	68.3%
COC(=O)Nc1nc(C)c(C(=O)c2sc(NC(=O)OC)nc2C)s1 [Example 123, Dimethyl[carbonyl-bis(4-methyl-1,3-thiazole-5,2-diyl)]biscarbamate]	23.9%
O=C(c1ccncc1)c1cc(-c2ccncc2)c(N2CCOCC2)s1 [Example 111, (5-Morpholin-4-yl-4-pyridin-4-yl-thiophen-2-yl)-pyridin-4-yl-methanone]	59.1%
CS(=O)(=O)c1ccc(-c2cc(C(=O)c3ccc(Cl)cc3Cl)sc2N2CCOCC2)cc1 [Example 58, (2,4-Dichloro-phenyl)-[4-(4-methanesulfonyl-phenyl)-5-morpholin-4-yl-thiophen-2-yl]-methanone]	50%
Cc1ccc(C(=O)c2cc(-c3ccc(S(C)(=O)=O)cc3)c(N3CCOCC3)s2)cc1 [Example 55, [4-(4-Methanesulfonyl-phenyl)-5-morpholin-4-yl-thiophene-2-yl]-p-tolyl-methanone]	-13.5%
O=C(c1cccnc1)c1cc(-c2ccccc2)c(N2CCOCC2)s1 [Example 50, (5-Morpholin-4-yl-4-phenyl-thiophene-2-yl)-pyridine-3-yl-methanone]	6.9%
O=C(Nc1ccc(F)cc1)Nc1nc(Nc2ccc(Cl)cc2)sc1C(=O)c1ccc(Cl)cc1 [Example 357, 1-[5-(4-Chloro-benzoyl)-2-(4-chloro-phenylamino)-thiazol-4-yl]-3-(4-fluoro-phenyl)-urea]	24.3%
COc1ccc(C(=O)c2cc(-c3cccnc3)c(N3CCOCC3)s2)cc1 [Example 92, (4-Methoxy-phenyl)-(5-morpholin-4-yl-4-pyridin-3-yl-thiophen-2-yl)methanone]	69%
CS(=O)(=O)c1ccc(C(=O)c2cc(-c3ccc(S(C)(=O)=O)cc3)c(N3CCOCC3)s2)cc1 [Example 60, (4-Methanesulfonyl-phenyl)-[4-(4-methansulfonyl-phenyl)5-morpholin-4-yl-thiophene-2-yl]-methanone]	59.9%
CC(=O)Nc1ccc(-c2cc(C(=O)c3ccc(Cl)cc3)sc2N2CCOCC2)cc1 [Example 69, N-{4-[5-(4-Chloro-benzoyl)-2-morpholin-4-yl-thiophene-3-yl]-phenyl}-acetamide]	-21.8%
COc1ccc(C(=O)c2sc(Nc3ccc(Cl)cc3)nc2NC(=O)Nc2ccc(F)cc2)cc1 [Example 355, 1-[2-(4-Chloro-phenylamino)-5-(4-methoxy-benzoyl)-thiazol-4-yl]-3-(4-fluoro-phenyl)-urea]	62.6%
Cc1ccc(-n2c(-c3cc(-c4ccccc4)c(N4CCOCC4)s3)nc3ccccc3c2=O)cc1 [Example 290, 2-(5-Morpholin-4-yl-4-phenyl-thiophene-2-yl)-3-p-tolyl-3H-quinazolin-4-one]	48%
COc1ccc(C(=O)c2cc(-c3ccc(NC(C)=O)cc3)c(N3CCOCC3)s2)cc1 [Example 68, N-{4-[5-(4-Methoxy-benzoyl)-2-morpholin-4-yl-thiophene-3-yl]-phenyl}-acetamide]	40%
O=C(c1ccncc1)c1sc(N2CCN(C(=O)c3ccco3)CC2)nc1-c1ccccc1 [Example 387, {2-[4-(Furan-2-carbonyl)-piperazin-1-yl]-4-phenyl-thiazol-5-yl}-pyridin-4-yl-methanone]	32%
CS(=O)(=O)c1ccc(C(=O)c2sc(Nc3ccc(Cl)cc3)nc2N)cc1 [Example 336, [4-Amino-2-(4-chloro-phenylamino)-thiazol-5-yl]-(4-methanesulfonyl-phenyl)-methanone]	28.3%
O=C(Nc1ccc(F)cc1)Nc1nc(Nc2ccc(Cl)cc2)sc1C(=O)c1ccc(Cl)cc1Cl [Example 358, 1-[2-(4-Chloro-phenylamino)-5-(2,4-dichloro-benzoyl)-thiazol-4-yl]-3-(4-fluoro-phenyl)-urea]	72.5%
CC(=O)Nc1ccc(-c2cc(C(=O)c3ccc(C)cc3)sc2N2CCOCC2)cc1 [Example 67, N-{4-[5-(4-Methyl-benzoyl)-2-morpholin-4-yl-thiophene-3-yl]-phenyl}-acetamide]	7.67%
CC(=O)Nc1ccc(C(=O)c2cc(-c3ccc(S(C)(=O)=O)cc3)c(N3CCOCC3)s2)cc1 [Example 61, N-{4-[4-(4-Methansulfonyl-phenyl)-5-morpholin-4-yl-thiophene-2carbonyl]-phenyl}-acetamide]	25%
Cc1c(OCC(F)(F)F)ccnc1-c1sc(Nc2ccc(Cl)cc2)nc1N [Example 342, (N2-(4-Chloro-phenyl)-5-[3-Methyl-4-(2,2,2-trifluoro-ethoxy)-pyridin-2-yl]-thiazole-2,4-diamine)]	76%
COc1ccc(Nc2nc(NC(=O)Nc3ccc(F)cc3)c(C(=O)c3ccncc3)s2)cc1 [Example 365, 1-(4-Fluoro-phenyl)-3-[2-(4-methoxy-phenylamino)-5-(pyridine-4-carbonyl)-thiazol-4-yl]-urea]	69.6%

Same assay, conditions: rat paw edema, 50 mg/kg, reading 3 hours after carrageenan; [(Control−Test)/Control]×100%

Compound	% Protection P
Cc1ccc(C(=O)c2sc(Nc3ccccc3)nc2N)cc1 [Example 322, 4-Amino-(2-phenylamino-thiazol-5-yl)-p-tolyl-methanone]	23.98%
4-{5-[5-Methyl-5-(2,2,2-trifluoro-ethoxy)-pyridin-2-yl]-3-pyridin-3-yl-thiphen-2-yl}-morpholine [Example 89]	−18.05%
COc1ccc(Nc2nc(NC(=O)Nc3ccc(F)cc3)c(C(=O)c3ccc(S(C)(=O)=O)cc3)s2)cc1 [Example 364, 1-(4-Fluoro-phenyl)-3-[5-(4-methanesulfonyl-benzoyl)-2-(4-methoxy-phenylamino)-thiazol-4-yl]-urea]	66.78%
